Data set [1] can be described thus: Metabolism stability test. The settings on record: human liver microsomes 0.5 mg protein/mL, 1 mmol/L NADPH, 37° C., 30 minutes. It counts as in vitro ADME. How it is done:
Using a commercially available pooled human hepatic microsomes, a test compound was reacted for a constant time, a remaining rate was calculated by comparing a reacted sample and an unreacted sample, thereby, a degree of metabolism in liver was assessed.
A reaction was performed (oxidative reaction) at 37° C. for 0 minute or 30 minutes in the presence of 1 mmol/L NADPH in 0.2 mL of a buffer (50 mmol/L Tris-HCl pH 7.4, 150 mmol/L potassium chloride, 10 mmol/L magnesium chloride) containing 0.5 mg protein/mL of human liver microsomes. After the reaction, 50 μL of the reaction solution was added to 100 μL of a methanol/acetonitrile=1/1 (v/v), mixed and centrifuged at 3000 rpm for 15 minutes. The test compound in the supernatant was quantified by LC/MS/MS, and a remaining amount of the test compound after the reaction was calculated, letting a compound amount at 0 minute reaction time to be 100%.
Background: Microsomes from liver hold many membrane-bound enzymes, among them those of drug oxidation.

The target of data set [2] is T1, CYP3A4 (Homo sapiens, UniProt P08684). In words: CYP3A4 fluorescent MBI test. It counts as in vitro ADME. More on the design: host or cells: Escherichia coli. As to conditions: CYP3A4 expressed in Escherichia coli, substrate 7-BFC. How it is done: The CYP3A4 fluorescent MBI test is a test of investigating enhancement of CYP3A4 inhibition of a compound by a metabolism reaction, and the test was performed using, as CYP3A4 enzyme expressed in Escherichia coli and employing, as an index, a reaction in which 7-benzyloxytrifluoromethylchmarin (7-BFC) is debenzylated by the CYP3A4 enzyme to produce a metabolite, 7-hydroxytrifluoromethylchmarin (HFC) emitting fluorescent light.
The reaction conditions were as follows: substrate, 5.6 μmol/L 7-BFC; pre-reaction time, 0 or 30 minutes; reaction time, 15 minutes; reaction temperature, 25° C. […]
An enzyme in a K-Pi buffer (pH 7.4) and a test drug solution as a pre-reaction solution were added to a 96-well plate at the composition of the pre-reaction, a part of it was transferred to another 96-well plate so that it was 1/10 diluted by a substrate in a K-Pi buffer, NADPH as a co-factor was added to initiate a reaction as an index (without preincubation) and, after a predetermined time of a reaction, acetonitrile/0.5 mol/L Tris (trishydroxyaminomethane)=4/1 was added to stop the reaction. […] For the plate on which each index reaction had been performed, a fluorescent value of 7-HFC which is a metabolite was measured with a fluorescent plate reader. […]

A further data set deals with T2, Recombinant human BACE1 (Homo sapiens, UniProt P56817).
T2 construct: purchased R&D Systems
As to the kind of experiment: Assay of BACE1 inhibiting activity. It counts as biochemical. The settings on record: Recombinant human BACE1 7.4 nM, substrate peptide 18 nM, pH 5.0, 30° C., 3 hours; read-out: IC50 (50% inhibitory concentration against the enzymatic activity). How it is done: 48.5 μL of substrate peptide solution (Biotin-XSEVNLDAEFRHDSGC-Eu: X=ε-amino-n-capronic acid, Eu=Europium cryptate) was added to each well of 96-hole half-area plate (a black plate: Corning Incorporated), and after addition of 0.5 μl of the test compound (dissolved in […]) and 1 μl of Recombinant human BACE1(R&D Systems), the reaction mixture was incubated at 30° C. for 3 hours. The substrate peptide was synthesized by reacting Cryptate TBPCOOH mono SMP (CIS bio international) with Biotin-XSEVNLDAEFRHDSGC (Peptide Institute, Inc.). […]
After the incubation for reaction, 50 μl of 8.0 μg/ml Streptavidin-XL665(CIS bio international) dissolved in phosphate buffer (150 mM K2HPO4—KH2PO4, pH 7.0, 0.008% Triton X-100, 0.8 M KF) was added to each well and left stand at 30° C. for an hour. After then, fluorescence intensity was measured (excitation wavelength: 320 nm, measuring wavelength: 620 nm and 665 nm) using Wallac 1420 multilabel counter (Perkin Elmer life sciences). Enzymatic activity was determined from counting ratio of each wavelength (10,000×Count 665/Count 620) and 50% inhibitory concentration against the enzymatic activity was calculated.

For data set [3], the system named is Neuroblastoma SH-SY5Y cells (SH/APPwt) with human wild-type β-APP excessively expressed. As to the kind of experiment: Measurement of β-amyloid (Aβ) production inhibitory effect in cell. It counts as cell-based. As to conditions: 24 hours, Aβ 1-40 in culture supernatant by HTRF, read-out: IC50 (amount needed to inhibit Aβ production by 50%). The procedure:
Neuroblastoma SH-SY5Y cells (SH/APPwt) with human wild-type β-APP excessively expressed therein were prepared at 8×10^5 cells/mL, and 150 μl portions thereof were inoculated into respective wells of a 96-well culture plate (Falcon). The cells were cultured for 2 hours at 37° C. in a 5% gaseous carbon dioxide incubator. Then, a solution which had been preliminarily prepared by adding and suspending the test compound (DMSO (dimethyl sulfoxide) solution) so as to be 2 μl/50 μl medium was added to the cell sap. Namely, the final DMSO concentration was 1%, and the amount of the cell culture was 200 μl. After the incubation was performed for 24 hours from the addition of the test compound, 100 μl of the culture supernatant was collected from each fraction. The amount of the Aβ in each fraction was measured.
The Aβ amount was measured as follows. 10 μl of a homogeneous time resolved fluorescence (HTRF) measurement reagent (Amyloid-β 1-40 peptide; IBA Molecular Holding, S.A.) and 10 μl of the culture supernatant were put into a 384-well half area microplate (black microplate, Costar) and mixed with each other, and then left standing overnight at 4° C. while the light was shielded. Then, the fluorescence intensity (excitation wavelength: 337 nm, measurement wavelength: 620 nm and 665 nm) was measured with a Wallac 1420 multilabel counter (Perkin Elmer life sciences). […]

Another data set can be described thus: Solubility test. Type of data set: physicochemical. As to conditions: JP-I medium, pH 1.2, simulated gastric fluid, kinetic from dmso stock, from turbidity after 4 hours, read-out: solubility assessed by 3 stages. How it is done: A 2-fold dilution series (12 points) of a 10 mM solution of a test compound in DMSO was added to a medium (JP-I, JP-II) (2%), and solubility was assessed by 3 stages (High; >40 μM, Medium; 3-40 μM, Low; <3 μM) from a turbidity after 4 hours (crystallization information).
The preparation method of solution was as follows: A 10 mM solution of the compound was prepared with DMSO, and 6 μL of the compound solution was added to 594 μL of an artificial intestinal juice (water and 118 mL of 0.2 mol/L NaOH reagent were added to 250 mL of 0.2 mol/L potassium dihydrogen phosphate reagent to reach 1000 mL) with a pH of 6.8. The mixture was left standing for 16 hours at 25° C., and the mixture was vacuum-filtered. The filtrate was two-fold diluted with methanol/water=1/1.

The target of another data set is T3, CYP1A2 (Homo sapiens, UniProt P05177).
T3 construct: enzyme, pooled human hepatic microsome 0.2 mg protein/mL; from tissue; host or cells: pooled human hepatic microsomes
T3 sequence (P05177 1-516): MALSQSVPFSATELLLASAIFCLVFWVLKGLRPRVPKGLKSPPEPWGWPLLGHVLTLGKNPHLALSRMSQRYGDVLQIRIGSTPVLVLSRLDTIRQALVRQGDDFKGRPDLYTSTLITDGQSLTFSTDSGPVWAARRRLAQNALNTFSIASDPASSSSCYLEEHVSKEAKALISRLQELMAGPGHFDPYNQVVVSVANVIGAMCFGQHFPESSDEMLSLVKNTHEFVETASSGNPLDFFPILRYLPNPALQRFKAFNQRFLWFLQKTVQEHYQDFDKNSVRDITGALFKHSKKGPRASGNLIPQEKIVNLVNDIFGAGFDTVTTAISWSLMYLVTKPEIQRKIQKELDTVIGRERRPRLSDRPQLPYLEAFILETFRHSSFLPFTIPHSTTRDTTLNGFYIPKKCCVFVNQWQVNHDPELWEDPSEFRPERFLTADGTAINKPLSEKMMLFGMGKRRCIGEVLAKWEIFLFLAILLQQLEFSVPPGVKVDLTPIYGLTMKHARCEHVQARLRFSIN
In words: CYP inhibition test (7-ethoxyresorufin O-deethylation). As to conditions: pooled human hepatic microsome, 0.5 μmol/L ethoxyresorufin. It counts as in vitro ADME. The procedure: (§1) Using commercially available pooled human hepatic microsome, and employing, as markers, 7-ethoxyresorufin O-deethylation (CYP1A2), tolbutamide methyl-hydroxylation (CYP2C9), mephenyloin 4′-hydroxylation (CYP2C19), dextromethorphan O-demethylation (CYP2D6), and terfenedine hydroxylation (CYP3A4) as typical substrate metabolism reactions of human main five CYP enzyme forms (CYP1A2, 2C9, 2C19, 2D6, 3A4), an inhibitory degree of each metabolite production amount by a test compound was assessed. […]
(§2) Each five kinds of substrates, human hepatic microsome, or a test drug in 50 mM Hepes buffer as a reaction solution was added to a 96-well plate at the composition as described above, NADPH, as a cofactor was added to initiate metabolism reactions as markers and, after the incubation at 37° C. for 15 minutes, a methanol/acetonitrile=1/1 (v/v) solution was added to stop the reaction. After the centrifugation at 3000 rpm for 15 minutes, resorufin (CYP1A2 metabolite) in the supernatant was quantified by a fluorescent multilabel counter and tributamide hydroxide (CYP2CP metabolite), mephenyloin 4′ hydroxide (CYP2C19 metabolite), […], and terfenadine alcohol (CYP3A4 metabolite) were quantified by LC/MS/MS. […]

Another data set deals with T4, CYP2C9 (Homo sapiens, UniProt P11712).
T4 construct: enzyme, pooled human hepatic microsome 0.2 mg protein/mL; from tissue; host or cells: pooled human hepatic microsomes
As to the kind of experiment: CYP inhibition test (tolbutamide methyl-hydroxylation). As to conditions: pooled human hepatic microsome. It counts as in vitro ADME. How it is done:
as §1, §2

The next data set deals with T5, CYP2C19 (Homo sapiens, UniProt P33261).
T5 construct: enzyme, pooled human hepatic microsome 0.2 mg protein/mL; from tissue; host or cells: pooled human hepatic microsomes
As to the kind of experiment: CYP inhibition test (mephenyloin 4′-hydroxylation). As to conditions: pooled human hepatic microsome, 50 μmol/L S-mephenitoin. Type of data set: in vitro ADME. How it is done:
as §1, §2

For the next data set, the target named is T6, CYP2D6 (Homo sapiens, UniProt P10635).
T6 construct: enzyme, pooled human hepatic microsome 0.2 mg protein/mL; from tissue; host or cells: pooled human hepatic microsomes
In words: CYP inhibition test (dextromethorphan O-demethylation). As to conditions: pooled human hepatic microsome, 5 μmol/L dextromethorphan. Type of data set: in vitro ADME. How it is done: as §1, §2

Data set [4] concerns the target T1, CYP3A4. In words: CYP inhibition test (terfenedine hydroxylation). As to conditions: pooled human hepatic microsome, 1 μmol/L terfenedine. Type of data set: in vitro ADME. More on the design: enzyme, pooled human hepatic microsome 0.2 mg protein/mL; from tissue; host or cells: pooled human hepatic microsomes. How it is done: as §1, §2

Consider 5 molecules from patent publication US20120245154A1, “SUBSTITUTED AMINOTHIAZINE DERIVATIVE” (SHIONOGI & CO., LTD., priority 2009, published 2012).

SMILES strings stand for the structures. Where only a bound is given, the exact number is not on record here.

One may read the solubility as the concentration that dissolves in the medium under given conditions.

T1 sequence (P08684 whole entry): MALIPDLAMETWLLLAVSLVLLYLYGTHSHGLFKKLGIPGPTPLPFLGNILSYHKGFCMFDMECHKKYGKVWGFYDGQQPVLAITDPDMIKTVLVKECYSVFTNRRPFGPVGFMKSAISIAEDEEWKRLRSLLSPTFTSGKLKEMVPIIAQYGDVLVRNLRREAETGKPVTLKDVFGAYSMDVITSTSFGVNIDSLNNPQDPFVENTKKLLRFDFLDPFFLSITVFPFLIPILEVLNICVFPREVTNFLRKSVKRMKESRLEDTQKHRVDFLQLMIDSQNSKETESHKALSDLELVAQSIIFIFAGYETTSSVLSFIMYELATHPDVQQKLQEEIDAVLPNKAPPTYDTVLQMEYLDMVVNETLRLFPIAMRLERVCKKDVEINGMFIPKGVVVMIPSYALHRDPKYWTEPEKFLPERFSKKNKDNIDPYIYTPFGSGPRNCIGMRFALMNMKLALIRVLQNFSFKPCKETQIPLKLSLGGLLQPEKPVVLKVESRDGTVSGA
T5 sequence (P33261 whole entry): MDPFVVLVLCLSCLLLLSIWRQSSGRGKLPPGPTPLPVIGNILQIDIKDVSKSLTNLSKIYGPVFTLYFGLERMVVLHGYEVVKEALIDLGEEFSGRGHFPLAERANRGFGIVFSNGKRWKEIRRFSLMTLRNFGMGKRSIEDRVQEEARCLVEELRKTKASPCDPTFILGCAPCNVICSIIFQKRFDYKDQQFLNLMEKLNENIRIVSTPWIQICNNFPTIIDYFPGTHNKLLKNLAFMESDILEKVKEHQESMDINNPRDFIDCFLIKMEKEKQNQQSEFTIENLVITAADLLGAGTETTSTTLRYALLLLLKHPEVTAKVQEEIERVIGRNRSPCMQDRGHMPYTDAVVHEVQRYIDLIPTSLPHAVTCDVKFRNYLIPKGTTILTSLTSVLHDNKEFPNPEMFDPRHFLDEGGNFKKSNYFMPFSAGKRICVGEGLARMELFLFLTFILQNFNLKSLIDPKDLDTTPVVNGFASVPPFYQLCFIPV
T4 sequence (P11712 whole entry): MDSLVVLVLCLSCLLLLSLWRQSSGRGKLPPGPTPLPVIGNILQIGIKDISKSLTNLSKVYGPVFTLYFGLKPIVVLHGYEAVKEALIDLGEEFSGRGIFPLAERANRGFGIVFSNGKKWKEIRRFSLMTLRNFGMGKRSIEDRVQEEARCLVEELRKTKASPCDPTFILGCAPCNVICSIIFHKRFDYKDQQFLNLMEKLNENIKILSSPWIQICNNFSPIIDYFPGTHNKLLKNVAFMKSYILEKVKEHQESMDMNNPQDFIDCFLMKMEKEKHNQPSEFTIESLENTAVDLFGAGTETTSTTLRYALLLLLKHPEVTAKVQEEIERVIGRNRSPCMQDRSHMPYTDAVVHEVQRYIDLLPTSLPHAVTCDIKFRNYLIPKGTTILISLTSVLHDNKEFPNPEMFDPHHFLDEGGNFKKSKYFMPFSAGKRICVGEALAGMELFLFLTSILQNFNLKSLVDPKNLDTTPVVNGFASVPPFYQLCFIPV
T2 sequence (P56817 46-501): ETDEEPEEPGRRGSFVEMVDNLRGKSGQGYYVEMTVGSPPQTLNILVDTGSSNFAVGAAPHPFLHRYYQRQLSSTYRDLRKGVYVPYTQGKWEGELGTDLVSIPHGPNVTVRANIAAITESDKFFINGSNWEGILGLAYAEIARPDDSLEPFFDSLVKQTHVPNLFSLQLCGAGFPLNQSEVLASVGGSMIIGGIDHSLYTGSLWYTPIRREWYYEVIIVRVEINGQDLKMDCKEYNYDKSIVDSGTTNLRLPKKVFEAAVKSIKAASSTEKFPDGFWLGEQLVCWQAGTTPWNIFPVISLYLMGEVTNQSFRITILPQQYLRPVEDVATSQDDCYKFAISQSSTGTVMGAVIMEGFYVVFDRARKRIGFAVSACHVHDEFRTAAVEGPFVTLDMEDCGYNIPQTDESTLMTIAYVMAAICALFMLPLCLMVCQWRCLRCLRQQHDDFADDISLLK
T6 sequence (P10635 whole entry): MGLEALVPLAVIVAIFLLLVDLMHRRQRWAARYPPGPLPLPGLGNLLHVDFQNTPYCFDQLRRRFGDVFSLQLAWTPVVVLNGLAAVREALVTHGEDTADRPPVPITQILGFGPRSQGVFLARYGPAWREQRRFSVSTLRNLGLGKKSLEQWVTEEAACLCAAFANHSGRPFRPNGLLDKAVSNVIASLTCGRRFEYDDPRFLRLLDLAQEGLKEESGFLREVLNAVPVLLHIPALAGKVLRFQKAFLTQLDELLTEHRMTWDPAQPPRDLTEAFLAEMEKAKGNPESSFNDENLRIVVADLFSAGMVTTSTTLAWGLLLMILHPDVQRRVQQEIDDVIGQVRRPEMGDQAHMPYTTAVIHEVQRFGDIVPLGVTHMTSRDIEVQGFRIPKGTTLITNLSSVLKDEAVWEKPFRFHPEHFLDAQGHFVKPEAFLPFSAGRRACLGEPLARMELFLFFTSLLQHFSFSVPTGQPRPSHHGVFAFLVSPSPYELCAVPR

For `COc1cnc(C(=O)Nc2ccc(F)c([C@]3(C)C=C(C(C)(C)O)SC(N)=N3)c2)cn1` [Compound I-19], in data set [1], the “remaining amount of the test compound after the reaction” value was determined as 96.4%.
For `C[C@@]1(c2cc(NC(=O)c3ccc(C#N)cn3)ccc2F)C=C(c2ccccn2)SC(N)=N1` [Compound I-20], the “CYP3A4 MBI: difference between IC50 values (pre-reaction time 0 or 30 minutes)” value at CYP3A4 [2] is “(−) (when the difference is 3 μM or less, this was defined as (−))”.
Take `CCC1=C[C@@](C)(c2cc(NC(=O)c3ccc(C#N)cn3)ccc2F)N=C(N)S1` [Compound I-8]: the IC50 on Recombinant human BACE1 was found to be 0.012 µM; in data set [3], 0.002 µM.
With `C[C@@]1(c2cc(NC(=O)c3ccc(C#N)cn3)ccc2F)C=C(CO)SC(N)=N1` [Compound I-6], the solubility at 4 h in “Solubility test” was > 40 µM.
In the case of `COCCNC(=O)C1=C[C@@](C)(c2cc(NC(=O)c3ccc(C#N)cn3)ccc2F)N=C(N)S1` [Compound I-2], the IC50 against CYP1A2, on CYP2C9, on CYP2C19, against CYP2D6 and at CYP3A4 [4] was > 21 µM in each case.
